Source: the supplement of paper PMC10307832

Experiments:
Assay in all cases: relative viability (nuclei count vs DMSO), 5 days (fraction); higher = more cells survive
[1] = compound: CC1=C(C=CC(=C1)[N+](=O)[O-])NS(=O)(=O)C2=C(C=CC(=C2)Cl)Cl [FH535] + CC(C)C[C@H](NC(=O)[C@H](Cc1ccccc1)NC(=O)c1cnccn1)B(O)O [Bortezomib] (partner 0.002 µM)
Outline: (§1)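 For relative viability, nuclei counts in treated wells were divided by those in vehicle wells. Lung cancer cell lines had been pin-tool dosed in 1536-well plates the day after seeding and cultured for 5 days, then fixed and stained in one step (final 0.05% Triton X-100, 1% formaldehyde, 1 ug/ml Hoechst) and imaged at 4×. Doses were one drug alone or a fixed anchor-drug dose plus five library-drug doses (not always all listed) in √10 steps, and values are duplicate-plate medians.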

[2] = compound: CC1=C(C=CC(=C1)[N+](=O)[O-])NS(=O)(=O)C2=C(C=CC(=C2)Cl)Cl [FH535] + CC1(C)CCC(c2ccc(Cl)cc2)=C(CN2CCN(c3ccc(C(=O)NS(=O)(=O)c4ccc(N[C@H](CCN5CCOCC5)CSc5ccccc5)c(S(=O)(=O)C(F)(F)F)c4)cc3)CC2)C1 [Navitoclax] (partner 0.5 µM)
Outline: as §1

[3] = compound: CC1=C(C=CC(=C1)[N+](=O)[O-])NS(=O)(=O)C2=C(C=CC(=C2)Cl)Cl [FH535] + COc1cccc2cc(-c3nc([C@H]4CC[C@H](C(=O)O)CC4)n4ncnc(N)c34)[nH]c12 [OSI-027] (partner 0.5 µM)
Outline: as §1

[4] = compound: CC1=C(C=CC(=C1)[N+](=O)[O-])NS(=O)(=O)C2=C(C=CC(=C2)Cl)Cl [FH535] + CS(=O)(=O)CCNCc1ccc(-c2ccc3ncnc(Nc4ccc(OCc5cccc(F)c5)c(Cl)c4)c3c2)o1 [Lapatinib] (partner 2 µM)
Outline: as §1

[5] = compound: CC1=C(C=CC(=C1)[N+](=O)[O-])NS(=O)(=O)C2=C(C=CC(=C2)Cl)Cl [FH535] + CS(=O)(=O)N1CCN(Cc2cc3nc(-c4cccc5[nH]ncc45)nc(N4CCOCC4)c3s2)CC1 [Pictilisib] (partner 1 µM)
Outline: as §1

Row | Cell Line | relative viability ([1]; first compound 0.04 µM) | relative viability ([1]; first compound 0.1265 µM) | relative viability ([1]; first compound 0.4 µM) | relative viability ([1]; first compound 1.265 µM) | relative viability ([2]; first compound 0.04 µM) | relative viability ([2]; first compound 0.1265 µM) | relative viability ([2]; first compound 0.4 µM) | relative viability ([2]; first compound 1.265 µM) | relative viability ([3]; first compound 0.04 µM) | relative viability ([3]; first compound 0.1265 µM) | relative viability ([3]; first compound 0.4 µM) | relative viability ([3]; first compound 1.265 µM) | relative viability ([4]; first compound 0.04 µM) | relative viability ([4]; first compound 0.1265 µM) | relative viability ([4]; first compound 0.4 µM) | relative viability ([4]; first compound 1.265 µM) | relative viability ([5]; first compound 0.04 µM) | relative viability ([5]; first compound 0.1265 µM) | relative viability ([5]; first compound 0.4 µM) | relative viability ([5]; first compound 1.265 µM)
1 | NCI-H1792 | 0.971 | 0.932 | 0.835 | 0.688 | 0.611 | 0.673 | 0.587 | 0.377 | 0.636 | 0.661 | 0.667 | 0.524 | 0.837 | 0.948 | 0.866 | 0.673 | 0.251 | 0.289 | 0.317 | 0.256
2 | NCI-H2087 | 0.7 | 0.57 | 0.719 | 0.528 | 0.811 | 1.11 | 0.947 | 0.518 | 0.522 | 0.454 | 0.478 | 0.421 | 0.918 | 0.825 | 0.868 | 0.6 | 0.885 | 0.885 | 0.731 | 0.52
3 | H3255 | 0.614 | 0.827 | 0.708 | 0.409 | 0.514 | 0.338 | 0.416 | 0.26 | 0.564 | 0.583 | 0.648 | 0.505 | 0.214 | 0.252 | 0.266 | 0.199 | 0.352 | 0.466 | 0.445 | 0.413
4 | NCI-H2347 | 0.843 | 1 | 1.02 | 0.627 | 0.684 | 0.792 | 0.871 | 0.705 | 0.405 | 0.486 | 0.306 | 0.37 | 0.979 | 0.664 | 0.971 | 0.781 | 0.484 | 0.591 | 0.639 | 0.726
5 | HCC-827 | 1.01 | 0.953 | 1.04 | 0.849 | 0.994 | 1.08 | 0.973 | 0.732 | 0.798 | 0.821 | 0.754 | 0.664 | 0.202 | 0.195 | 0.213 | 0.163 | 0.894 | 1 | 0.824 | 0.728
6 | HCC-78 | 0.475 | 0.471 | 0.593 | 0.434 | 0.612 | 1.04 | 0.782 | 0.718 | 0.374 | 0.334 | 0.357 | 0.38 | 0.694 | 0.321 | 0.701 | 0.697 | 0.193 | 0.223 | 0.187 | 0.204
7 | NCI-H23 |  | 1.25 | 1.04 | 1.11 |  | 0.821 | 0.818 | 0.703 | 0.408 | 0.471 | 0.642 | 0.546 |  | 1.17 | 0.936 | 0.913 |  | 0.41 | 0.483 | 0.508
8 | NCI-H1975 | 0.312 | 0.381 | 0.374 | 0.338 | 1.16 | 1.32 | 0.91 | 0.934 | 0.721 | 0.705 | 0.584 | 0.534 | 0.863 | 0.748 | 0.715 | 0.73 | 0.274 | 0.274 | 0.296 | 0.244
9 | COR-L23 | 0.845 | 1.04 | 0.816 | 0.587 | 0.992 | 1.14 | 0.886 | 0.567 | 0.778 | 0.621 | 0.643 | 0.408 | 0.953 | 0.958 | 0.901 | 0.549 | 0.734 | 0.816 | 0.624 | 0.531
10 | CAL-12T | 0.846 | 0.936 | 0.626 | 0.268 | 1.16 | 1.11 | 1.12 | 0.654 | 0.63 | 0.688 | 0.504 | 0.407 | 0.612 | 0.633 | 0.726 | 0.476 | 0.392 | 0.362 | 0.29 | 0.334
11 | UMC-11 | 0.545 | 0.478 | 0.48 | 0.54 | 0.312 | 0.315 | 0.298 | 0.262 | 0.413 | 0.561 | 0.431 | 0.416 | 0.858 | 0.994 | 0.885 | 0.765 | 0.749 | 0.619 | 0.726 | 0.787
12 | NCI-H2126 | 1.07 | 1.1 | 0.986 | 0.879 | 0.779 | 0.875 | 0.778 | 0.628 | 0.72 | 0.742 | 0.692 | 0.532 | 0.734 | 0.679 | 0.696 | 0.676 | 0.472 | 0.497 | 0.472 | 0.425
